Patent publication US20260049076A1, “Tertiary Amine Substituted Bicyclic Compounds Useful as T Cell Activators” (BRISTOL-MYERS SQUIBB COMPANY, priority 2022, published 2026)

Legend:
human DGKζ = target: T1, human DGKζ (Homo sapiens, UniProt Q13574); experiment: In vitro DGK inhibition assay, DGKζ liposome (LIPGLO) assay; format: biochemical; settings: read-out: Enzyme Inhibition DGKzeta IC50
T1 construct: TVMV protease cleavage site (C); Hexa-His (C); made in house; host or cells: Sf9 insect cells (baculovirus)
Outline: (§1)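 Baculovirus/Sf9-expressed His-tagged human DGKα or DGKζ (5 nM) on extruded liposomes (2 mM PS, 0.25 mM DAG, 2.75 mM PC) in MOPS pH 7.5 with MgCl2, CaCl2 and 150 μM ATP, 1 h.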

DGKalpha = DGKalpha (Homo sapiens, UniProt P23743); experiment: Translocation DGKalpha; format: cell-based
DGKzeta = DGKzeta (Homo sapiens, UniProt Q13574); experiment: Translocation DGKzeta; format: cell-based
human DGKα = target: T2, human DGKα (Homo sapiens, UniProt P23743); experiment: In vitro DGK inhibition assay, DGKα liposome (LIPGLO) assay; format: biochemical; settings: read-out: Enzyme Inhibition DGKalpha IC50
T2 construct: TVMV protease cleavage site (C); Hexa-His (C); made in house; host or cells: Sf9 insect cells (baculovirus)
Outline: as §1

T1 sequence (Q13574 with tags, fused parts or gaps isoform Q13574-4): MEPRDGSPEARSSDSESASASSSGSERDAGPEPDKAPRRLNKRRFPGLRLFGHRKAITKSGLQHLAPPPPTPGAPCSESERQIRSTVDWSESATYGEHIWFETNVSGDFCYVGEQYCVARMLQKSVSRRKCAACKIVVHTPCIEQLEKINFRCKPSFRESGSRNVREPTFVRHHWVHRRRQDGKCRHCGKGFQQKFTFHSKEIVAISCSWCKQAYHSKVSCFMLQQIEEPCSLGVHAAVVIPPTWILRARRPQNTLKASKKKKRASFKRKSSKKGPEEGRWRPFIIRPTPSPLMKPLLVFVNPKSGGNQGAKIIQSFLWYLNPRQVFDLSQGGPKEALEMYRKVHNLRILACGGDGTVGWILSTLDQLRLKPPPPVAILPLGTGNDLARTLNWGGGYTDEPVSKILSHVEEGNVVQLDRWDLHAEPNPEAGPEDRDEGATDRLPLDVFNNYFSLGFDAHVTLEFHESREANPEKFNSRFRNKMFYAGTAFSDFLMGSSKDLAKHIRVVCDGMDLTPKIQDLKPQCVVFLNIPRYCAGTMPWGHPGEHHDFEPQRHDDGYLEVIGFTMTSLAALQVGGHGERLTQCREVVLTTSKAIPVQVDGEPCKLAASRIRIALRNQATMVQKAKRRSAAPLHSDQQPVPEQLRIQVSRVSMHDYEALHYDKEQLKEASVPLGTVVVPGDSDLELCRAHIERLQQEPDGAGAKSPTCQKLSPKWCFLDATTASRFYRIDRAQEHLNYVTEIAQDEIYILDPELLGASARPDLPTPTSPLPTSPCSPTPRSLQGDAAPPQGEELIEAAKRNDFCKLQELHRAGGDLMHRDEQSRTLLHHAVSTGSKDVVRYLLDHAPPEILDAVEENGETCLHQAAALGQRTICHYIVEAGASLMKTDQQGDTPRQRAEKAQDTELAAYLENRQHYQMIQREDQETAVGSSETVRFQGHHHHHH
Sequence of DGKzeta (Q13574 whole entry): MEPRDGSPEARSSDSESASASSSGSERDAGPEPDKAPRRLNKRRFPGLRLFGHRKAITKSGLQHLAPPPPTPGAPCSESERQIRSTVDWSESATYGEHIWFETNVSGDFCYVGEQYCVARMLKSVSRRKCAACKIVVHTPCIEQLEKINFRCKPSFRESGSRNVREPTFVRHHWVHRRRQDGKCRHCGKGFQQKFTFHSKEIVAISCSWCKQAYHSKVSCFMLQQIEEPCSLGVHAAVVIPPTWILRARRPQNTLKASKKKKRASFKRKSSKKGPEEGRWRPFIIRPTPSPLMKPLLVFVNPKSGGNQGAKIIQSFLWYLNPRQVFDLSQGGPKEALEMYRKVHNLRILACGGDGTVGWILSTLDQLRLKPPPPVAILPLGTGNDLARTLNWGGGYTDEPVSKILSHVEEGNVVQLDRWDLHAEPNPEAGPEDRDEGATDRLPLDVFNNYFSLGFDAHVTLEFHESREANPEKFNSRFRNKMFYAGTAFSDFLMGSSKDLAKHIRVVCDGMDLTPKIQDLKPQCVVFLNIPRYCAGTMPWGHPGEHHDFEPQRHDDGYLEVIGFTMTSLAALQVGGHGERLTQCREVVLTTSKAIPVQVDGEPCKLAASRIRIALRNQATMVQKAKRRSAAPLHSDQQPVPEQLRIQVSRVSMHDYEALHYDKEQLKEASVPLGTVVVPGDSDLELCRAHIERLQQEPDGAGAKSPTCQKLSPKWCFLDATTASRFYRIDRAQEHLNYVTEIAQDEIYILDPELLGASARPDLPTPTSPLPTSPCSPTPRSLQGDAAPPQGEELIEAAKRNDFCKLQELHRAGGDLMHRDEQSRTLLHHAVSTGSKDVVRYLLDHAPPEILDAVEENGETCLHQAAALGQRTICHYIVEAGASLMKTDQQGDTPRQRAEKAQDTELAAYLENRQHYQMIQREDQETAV
Sequence of DGKalpha (P23743 whole entry): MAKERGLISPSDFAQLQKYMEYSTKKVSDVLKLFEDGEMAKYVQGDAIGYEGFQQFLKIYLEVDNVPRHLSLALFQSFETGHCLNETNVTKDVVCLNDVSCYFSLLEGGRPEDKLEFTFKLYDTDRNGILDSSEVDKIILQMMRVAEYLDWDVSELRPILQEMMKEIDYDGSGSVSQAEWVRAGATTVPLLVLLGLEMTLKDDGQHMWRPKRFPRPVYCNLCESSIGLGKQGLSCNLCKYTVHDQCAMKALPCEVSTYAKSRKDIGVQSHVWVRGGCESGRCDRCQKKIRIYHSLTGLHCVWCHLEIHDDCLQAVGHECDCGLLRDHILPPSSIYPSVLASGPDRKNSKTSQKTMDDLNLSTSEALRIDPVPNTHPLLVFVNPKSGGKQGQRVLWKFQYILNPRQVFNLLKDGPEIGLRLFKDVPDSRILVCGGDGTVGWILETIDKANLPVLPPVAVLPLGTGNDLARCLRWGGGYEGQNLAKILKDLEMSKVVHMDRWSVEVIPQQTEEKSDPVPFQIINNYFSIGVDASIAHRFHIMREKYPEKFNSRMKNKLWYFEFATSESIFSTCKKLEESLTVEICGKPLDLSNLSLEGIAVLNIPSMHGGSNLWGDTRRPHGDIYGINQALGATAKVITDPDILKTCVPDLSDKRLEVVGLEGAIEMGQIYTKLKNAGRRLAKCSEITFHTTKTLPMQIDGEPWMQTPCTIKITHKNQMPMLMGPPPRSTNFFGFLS
T2 sequence (P23743 with tags, fused parts or gaps): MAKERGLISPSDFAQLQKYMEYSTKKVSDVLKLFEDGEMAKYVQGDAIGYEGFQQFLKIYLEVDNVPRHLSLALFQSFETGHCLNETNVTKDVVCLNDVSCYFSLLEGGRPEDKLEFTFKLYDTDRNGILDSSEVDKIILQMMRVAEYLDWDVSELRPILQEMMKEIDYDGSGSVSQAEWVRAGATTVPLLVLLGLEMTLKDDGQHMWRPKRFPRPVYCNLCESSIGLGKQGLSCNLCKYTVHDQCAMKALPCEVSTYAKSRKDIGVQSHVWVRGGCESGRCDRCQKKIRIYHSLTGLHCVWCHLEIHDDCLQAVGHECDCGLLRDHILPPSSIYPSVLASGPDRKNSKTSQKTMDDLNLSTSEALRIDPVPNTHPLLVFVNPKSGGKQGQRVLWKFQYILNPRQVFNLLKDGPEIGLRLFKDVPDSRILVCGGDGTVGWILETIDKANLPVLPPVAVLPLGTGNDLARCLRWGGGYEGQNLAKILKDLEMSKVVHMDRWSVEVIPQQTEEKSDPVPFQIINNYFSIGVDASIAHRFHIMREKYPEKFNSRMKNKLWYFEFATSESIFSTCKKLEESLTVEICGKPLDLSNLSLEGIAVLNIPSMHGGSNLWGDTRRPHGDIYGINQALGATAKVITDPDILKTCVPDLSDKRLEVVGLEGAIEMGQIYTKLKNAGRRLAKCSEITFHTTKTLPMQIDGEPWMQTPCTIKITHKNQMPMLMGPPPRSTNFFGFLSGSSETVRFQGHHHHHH

| Compound | IC50 (human DGKζ) [µM] | EC50 (DGKalpha) [µM] | EC50 (DGKzeta) [µM] | IC50 (human DGKα) [µM] |
| --- | --- | --- | --- | --- |
| Cn1c(=O)cc(N(CC2CC2)c2ccc(C3CC3)c(-c3ccc(OCC4CC4)cc3)c2)c2nc(C#N)ccc21 [Example 131, 8-((6-cyclopropyl-4′-(cyclopropylmethoxy)-[1,1′-biphenyl]-3-yl) (cyclopropylmethyl)amino)-5-methyl-6-oxo-5,6-dihydro-1,5-naphthyridine-2-carbonitrile] | 34 | > 3 | 0.18 | > 38 |
| Cn1c(=O)cc(N(CC2CC2)c2ccc(OC(F)F)nc2)c2nc(C#N)ccc21 [Example 112, 8-((cyclopropylmethyl)(6-(difluoromethoxy)pyridin-3-yl)amino)-5-methyl-6-oxo-5,6-dihydro-1,5-naphthyridine-2-carbonitrile] | 1.1 | > 3 | 0.091 | 4.7 |
| Cn1c(=O)cc(N(CC2CC2)c2ccc(OCC(F)(F)F)cc2)c2nc(C#N)ccc21 [Example 37, 8-((cyclopropylmethyl)(4-(2,2,2-trifluoroethoxy)phenyl)amino)-5-methyl-6-oxo-5,6-dihydro-1,5-naphthyridine-2-carbonitrile] | 0.35 | 10 | 5 | 1.1 |
| Cn1c(=O)cc(N(CC2CC2)c2ccc(C3CC3)nc2)c2nc(C#N)ccc21 [Example 114, 8-((cyclopropylmethyl)(6-cyclopropylpyridin-3-yl)amino)-5-methyl-6-oxo-5,6-dihydro-1,5-naphthyridine-2-carbonitrile] | 1.4 | > 3 | 0.13 | 7.9 |
| Cn1c(=O)cc(N(CC2CC2)c2ccc(C3CC3)c(-c3ccc(C4CC4)cc3)c2)c2nc(C#N)ccc21 [Example 125, 8-((cyclopropylmethyl)(4′,6-dicyclopropyl-[1,1′-biphenyl]-3-yl)amino)-5-methyl-6-oxo-5,6-dihydro-1,5-naphthyridine-2-carbonitrile] | 32 | > 3 | 0.091 | 36 |
| Cn1c(=O)cc(N(CC2CC2)c2ccc(C3CC3)c(-c3ccc(N4CCOCC4)cc3)c2)c2nc(C#N)ccc21 [Example 124, 8-((6-cyclopropyl-4′-morpholino-[1,1′-biphenyl]-3-yl)(cyclopropylmethyl)amino)-5-methyl-6-oxo-5,6-dihydro-1,5-naphthyridine-2-carbonitrile] | > 38 | 2.5 | 0.18 | 34 |
| Cc1cc(N(CC2CC2)c2cc(=O)n(C)c3ccc(C#N)nc23)ccc1C1CC1 [Example 132] | 3.6 | > 3 | 0.2 | > 38 |
| Cn1c(=O)cc(N(CC2CC2)c2ccc3c(c2)OCCO3)c2nc(C#N)ccc21 [Example 120, 8-((cyclopropylmethyl)(2,3-dihydrobenzo[b][1,4]dioxin-6-yl)amino)-5-methyl-6-oxo-5,6-dihydro-1,5-naphthyridine-2-carbonitrile] | 6.9 | 0.92 | 0.33 | 13 |
| Cn1c(=O)cc(N(CC2CC2)c2ccc(C3CCC3)cc2)c2nc(C#N)ccc21 [Example 118, 8-((4-cyclobutylphenyl) (cyclopropylmethyl)amino)-5-methyl-6-oxo-5,6-dihydro-1,5-naphthyridine-2-carbonitrile] | 1.3 | – | 0.013 | 9.3 |
| Cn1c(=O)cc(N(CC2CC2)c2ccc(C#N)nc2)c2nc(C#N)ccc21 [Example 66, 8-((6-cyanopyridin-3-yl)(cyclopropylmethyl)amino)-5-methyl-6-oxo-5,6-dihydro-1,5-naphthyridine-2-carbonitrile] | 8.4 | – | 3 | 17 |
| Cn1c(=O)cc(N(CC2CC2)c2ccc(C3CCCCC3)cc2)c2nc(C#N)ccc21 [Example 119, 8-((4-cyclohexylphenyl)(cyclopropylmethyl)amino)-5-methyl-6-oxo-5,6-dihydro-1,5-naphthyridine-2-carbonitrile] | 12 | – | 0.041 | 13 |
| COCc1ccccc1N(CC1CC1)c1cc(=O)n(C)c2ccc(C#N)nc12 [Example 67, 8-((cyclopropylmethyl)(2-(methoxymethyl)phenyl)amino)-5-methyl-6-oxo-5,6-dihydro-1,5-naphthyridine-2-carbonitrile] | 21 | – | – | 4.5 |
| CC(C1CC1)N(C)c1cc(=O)n(C)c2ccc(C#N)nc12 (racemic) [Example 32, 8-((1-cyclopropylethyl)(methyl)amino)-5-methyl-6-oxo-5,6-dihydro-1,5-naphthyridine-2-carbonitrile] | 90 | – | – | 1.4 |
| Cn1c(=O)cc(N(CC2CC2)c2ccc(C3CC3)cc2)c2nc(C#N)ccc21 [Example 40, 8-((cyclopropylmethyl)(4-cyclopropylphenyl)amino)-5-methyl-6-oxo-5,6-dihydro-1,5-naphthyridine-2-carbonitrile] | 0.19 | – | – | 2.7 |
| Cn1c(=O)cc(N(CC2CC2)c2ccc(OC(F)F)c(C#N)c2)c2nc(C#N)ccc21 [Example 63, 8-((3-cyano-4-(difluoromethoxy)phenyl)(cyclopropylmethyl)amino)-5-methyl-6-oxo-5,6-dihydro-1,5-naphthyridine-2-carbonitrile] | 12 | – | 1.3 | 6.3 |
| CN(C)C(=O)c1ccc(-c2ccc(N(CC3CC3)c3cc(=O)n(C)c4ccc(C#N)nc34)cc2)cc1 [Example 82, 4′-((6-cyano-1-methyl-2-oxo-1,2-dihydro-1,5-naphthyridin-4-yl) (cyclopropylmethyl)amino)-N,N-dimethyl-[1,1′-biphenyl]-4-carboxamide] | 2 | – | – | 3.8 |
| Cn1c(=O)cc(N(CC2CC2)c2ccc(F)nc2)c2nc(C#N)ccc21 [Example 64, 8-((cyclopropylmethyl)(6-fluoropyridin-3-yl)amino)-5-methyl-6-oxo-5,6-dihydro-1,5-naphthyridine-2-carbonitrile] | 3 | – | 1.6 | 0.15 |
| CN(c1ccc(F)c(F)c1)c1cc(=O)n(C)c2ccc(C#N)nc12 [Example 28, 8-((3,4-difluorophenyl)(methyl)amino)-5-methyl-6-oxo-5,6-dihydro-1,5-naphthyridine-2-carbonitrile] | 120 | – | – | 0.44 |
| Cn1c(=O)cc(N(CC2CC2)c2ccc(-c3cccc(Cl)c3)cc2)c2nc(C#N)ccc21 [Example 76, 8-((3′-chloro-[1,1′-biphenyl]-4-yl)(cyclopropylmethyl)amino)-5-methyl-6-oxo-5,6-dihydro-1,5-naphthyridine-2-carbonitrile] | 2.1 | – | – | 6.2 |
| CN(C)c1cccc(-c2ccc(N(CC3CC3)c3cc(=O)n(C)c4ccc(C#N)nc34)cc2)c1 [Example 89, 8-((cyclopropylmethyl)(3′-(dimethylamino)-[1,1′-biphenyl]-4-yl)amino)-5-methyl-6-oxo-5,6-dihydro-1,5-naphthyridine-2-carbonitrile] | 0.92 | – | – | 2.5 |
| COc1cccc(-c2ccc(N(CC3CC3)c3cc(=O)n(C)c4ccc(C#N)nc34)cc2)c1 [Example 77, 8-((cyclopropylmethyl)(3′-methoxy-[1,1′-biphenyl]-4-yl)amino)-5-methyl-6-oxo-5,6-dihydro-1,5-naphthyridine-2-carbonitrile] | 4 | – | – | 9.5 |
| CN(C)c1cccc(-c2cccc(N(CC3CC3)c3cc(=O)n(C)c4ccc(C#N)nc34)c2)c1 [Example 109, 8-((cyclopropylmethyl)(3′-(dimethylamino)-[1,1′-biphenyl]-3-yl)amino)-5-methyl-6-oxo-5,6-dihydro-1,5-naphthyridine-2-carbonitrile] | 3.7 | – | – | 6.3 |
| Cn1c(=O)cc(N(CC2CC2)[C@H]2CC[C@H](c3ccccc3)CC2)c2nc(C#N)ccc21 [Example 121, 8-((cyclopropylmethyl)((1r,4r)-4-phenylcyclohexyl)amino)-5-methyl-6-oxo-5,6-dihydro-1,5-naphthyridine-2-carbonitrile] | 18 | – | 0.29 | 16 |
| Cc1cccc(N(C)c2cc(=O)n(C)c3ccc(C#N)nc23)c1 [Example 22, 5-methyl-8-(methyl(m-tolyl)amino)-6-oxo-5,6-dihydro-1,5-naphthyridine-2-carbonitrile] | 4.7 | – | – | 1.3 |
| CN(c1cccc(-c2ccc(OC(F)(F)F)cc2)c1)c1nc(=O)n(C)c2ccc(C#N)nc12 [Example 3, 1-methyl-4-(methyl(4′-(trifluoromethoxy)-[1,1′-biphenyl]-3-yl)amino)-2-oxo-1,2-dihydropyrido[3,2-d]pyrimidine-6-carbonitrile] | > 38 | – | – | 1.8 |
| Cn1c(=O)cc(N(CC2CC2)c2ccc(F)cc2)c2nc(C#N)ccc21 [Example 35, 8-((cyclopropylmethyl)(4-fluorophenyl)amino)-5-methyl-6-oxo-5,6-dihydro-1,5-naphthyridine-2-carbonitrile] | 3 | – | – | 0.22 |
| Cn1c(=O)cc(N(CC2CC2)c2ccc(OC(F)(F)F)cc2Cl)c2nc(C#N)ccc21 [Example 50, 8-((2-chloro-4-(trifluoromethoxy)phenyl)(cyclopropylmethyl)amino)-5-methyl-6-oxo-5,6-dihydro-1,5-naphthyridine-2-carbonitrile] | 2.5 | – | – | 4.8 |
